The results in this text go back to patent publication US10421779B2, “Carbazole compound having anti-virus activity” (priority 2016, dated 2019).

Read-outs that look alike come from different tables or passages of the source.

The test system of this test is HCV genotype 1 b (HCV replicon system). The experiment in a line: HCV replicon system genotype 1b, Renilla luciferase activity. Type of test: cell-based. To be noted: Hepatitis C virus, 72 h, HCV genotype 1b replicon, Rluc, 3 days, read-out: Replicon EC50 1b type. Here is the method: From human liver cells (Huh7.5.1 cell) infected by hepatitis C virus, the anti-virus effects by the compound of the present invention were measured. From HCV genotype 1 b (HCV replicon system), genotype 2a (HCV cell culture system, HCVcc), and genotype 3a, the EC50 values were measured.
In order to measure the EC50 value from HCV genotype 1 b, the degrees of HCV replication inhibitory activities of an experimental compound were measured. The EC50 value was measured by treating the experimental compound with the HCV replicon systems (genotype 1 b) having Renilla luciferase (Rluc) genes and genotype 1 b non-structure genes under various concentration conditions to compare the activity degree of the luciferase after 3 days elapsed time with that of the control.

For the compound `CCCCCCCCCCn1c2cc(NC(=O)[C@@H]3CCCN3C(=O)[C@H](NC(=O)OC)C(C)C)ccc2c2ccc(NC(=O)[C@@H]3CCCN3C(=O)[C@H](NC(=O)OC)C(C)C)cc21` [Example 25, dimethyl ((2R,2′R)-((2S,2′S)-(((9-decyl-9H-carbazole-2,7-diyl)bis(azanediyl))bis(carbonyl))bis(pyrrolidine-2,1-diyl))bis(3-methyl-1-oxobutane-1,2-diyl))dicarbamate], the EC50 is greater than 1000 pM.

For `COC(=O)N[C@@H](C(=O)N1CCC[C@H]1C(=O)Nc1ccc2c3ccc(NC(=O)[C@@H]4CCCN4C(=O)[C@H](NC(=O)OC)c4ccccc4)cc3n(CCN3CCN(C)CC3)c2c1)c1ccccc1` [Example 11], the EC50 lay within 10000 to 100000 pM.

`CCCCn1c2cc(NC(=O)C3CCCN3C(=O)[C@@H](NC(=O)OC)c3ccccc3)ccc2c2ccc(NC(=O)[C@@H]3CCCN3C(=O)[C@@H](NC(=O)OC)c3ccccc3)cc21` (stereo partly drawn) [Example 3, dimethyl ((1S,1′S)-((2S,2′S)-(((9-butyl-9H-carbazole-2,7-diyl)bis(azanediyl))bis(carbonyl))bis(pyrrolidine-2,1-diyl))bis(2-oxo-1-phenylethane-2,1-diyl))carbamate]: the EC50 is greater than 1000 pM.

As to `COCCOCCn1c2cc(NC(=O)[C@@H]3CCCN3C(=O)[C@H](NC(=O)OC)c3ccccc3)ccc2c2ccc(NC(=O)[C@@H]3CCCN3C(=O)[C@H](NC(=O)OC)c3ccccc3)cc21` [Example 22, dimethyl ((1R,1′R)-((2S,2′S)-(((9-(2-(2-methoxyethoxy)ethyl)-9H-carbazole-2,7-diyl)bis(azanediyl))bis(carbonyl))bis(pyrrolidine-2,1-diyl))bis(2-oxo-1-phenylethane-2,1-diyl))dicarbamate], the EC50 (range limits given with own units (pM to nM)) was 250 to 1250 pM.

As to `CCCCn1c2cc(NC(=O)[C@@H]3CCCN3C(=O)[C@H](NC(=O)OC)C(C)C)ccc2c2ccc(NC(=O)[C@@H]3CCCN3C(=O)[C@H](NC(=O)OC)C(C)C)cc21` [Example 2, dimethyl ((2R,2′R)-((2S,2′S)-(((9-butyl-9H-carbazole-2,7-diyl)bis(azanediyl))bis(carbonyl))bis(pyrrolidine-2,1-diyl))bis(3-methyl-1-oxobutane-1,2-diyl))dicarbamate], the EC50 was greater than 1000 pM.

`CCCCn1c2cc(NC(=O)[C@@H]3CCCN3C(=O)[C@@H](NC(=O)OC)C(C)C)ccc2c2ccc(-c3c[nH]c([C@@H]4CCCN4C(=O)[C@@H](NC(=O)OC)C(C)C)n3)cc21` [Example 53, methyl ((S)-1-((S)-2-((9-butyl-7-(2-((S)-1-((methoxycarbonyl)-L-valyl)pyrrolidine-2-yl)-1H-imidazole-4-yl)-9H-carbazole-2-yl)carbamoyl)pyrrolidine-1-yl)-3-methyl-1-oxobutane-2-yl)carbamate]: the EC50 was greater than 10000 pM.

With `CCCCn1c2cc(NC(=O)[C@@H]3CCCN3C(=O)[C@H](NC(=O)OC)c3ccccc3)ccc2c2ccc(NC(=O)[C@@H]3CCCN3C(=O)[C@H](NC(=O)OC)c3ccccc3)cc21` [Example 1, dimethyl ((1R,1′R)-((2S,2′S)-(((9-butyl-9H-carbazole-2,7-diyl)bis(azanediyl))bis(carbonyl))bis(pyrrolidine-2,1-diyl))bis(2-oxo-1-phenylethane-2,1-diyl))dicarbamate], the EC50 came to 10.4 pM.

As for `CCCCn1c2cc(NC(=O)[C@@H]3CCCN3C(=O)[C@@H](NC(=O)OC)C(C)C)ccc2c2ccc(NC(=O)[C@@H]3CCCN3C(=O)[C@@H](NC(=O)OC)C(C)C)cc21` [Example 4, dimethyl ((2S,2′S)-((2S,2′S)-(((9-butyl-9H-carbazole-2,7-diyl)bis(azanediyl))bis(carbonyl))bis(pyrrolidine-2,1-diyl))bis(3-methyl-1-oxobutane-1,2-diyl))dicarbamate], the EC50 fell in the range of 10000 to 100000 pM.

For `COC(=O)N[C@@H](C(=O)N1CCC[C@H]1C(=O)Nc1ccc2c3ccc(NC(=O)[C@@H]4CCCN4C(=O)[C@H](NC(=O)OC)c4ccccc4)cc3n(C)c2c1)c1ccccc1` [Example 6, dimethyl ((1R,1′R)-((2S,2′S)-(((9-methyl-9H-carbazole-2,7-diyl)bis(azanediyl))bis(carbonyl))bis(pyrrolidine-2,1-diyl))bis(2-oxo-1-phenylethane-2,1-diyl))dicarbamate], the EC50 worked out at 19.5 pM.

Regarding `COC(=O)N[C@@H](C(=O)N1CCC[C@H]1C(=O)Nc1ccc2c3ccc(NC(=O)[C@@H]4CCCN4C(=O)[C@H](NC(=O)OC)c4ccccc4)cc3n(CC3CCCC3)c2c1)c1ccccc1` [Example 47, dimethyl ((1R,1′R)-((2S,2′S)-(((9-(cyclopentylmethyl)-9H-carbazole-2,7-diyl)bis(azanediyl))bis(carbonyl))bis(pyrrolidine-2,1-diyl))bis(2-oxo-1-phenylethane-2,1-diyl))dicarbamate], the EC50 is roughly 10 pM.

Regarding `CCCCC(CCCC)n1c2cc(NC(=O)[C@@H]3CCCN3C(=O)[C@H](NC(=O)OC)c3ccccc3)ccc2c2ccc(NC(=O)[C@@H]3CCCN3C(=O)[C@H](NC(=O)OC)c3ccccc3)cc21` [Example 46, dimethyl ((1R,1′R)-((2S,2′S)-(((9-(nonane-5-yl)-9H-carbazole-2,7-diyl)bis(azanediyl))bis(carbonyl))bis(pyrrolidine-2,1-diyl))bis(2-oxo-1-phenylethane-2,1-diyl))dicarbamate], the EC50 is roughly 10 pM.

Turning to `CCCCCCOc1ccccc1Cn1c2cc(NC(=O)[C@@H]3CCCN3C(=O)[C@H](NC(=O)OC)c3ccccc3)ccc2c2ccc(NC(=O)[C@@H]3CCCN3C(=O)[C@H](NC(=O)OC)c3ccccc3)cc21` [Example 35, dimethyl ((1R,1′R)-((2S,2′S)-(((9-(2-(hexyloxy)benzyl)-9H-carbazole-2,7-diyl)bis(azanediyl))bis(carbonyl))bis(pyrrolidine-2,1-diyl))bis(2-oxo-1-phenylethane-2,1-diyl))dicarbamate], the EC50 is roughly 1000 pM.

Consider `COC(=O)N[C@H](C(=O)N1CCC[C@H]1C(=O)Nc1ccc2c3ccc(NC(=O)[C@@H]4CCCN4C(=O)[C@@H](NC(=O)OC)c4ccccc4)cc3n(C)c2c1)c1ccccc1` [Example 8, dimethyl ((1S,1′S)-((2S,2′S)-(((9-methyl-9H-carbazole-2,7-diyl)bis(azanediyl))bis(carbonyl))bis(pyrrolidine-2,1-diyl))bis(2-oxo-1-phenylethane-2,1-diyl))dicarbamate], for which the EC50 is greater than 1000 pM.

On to `CC(C)[C@@H](C(=O)N1CCC[C@H]1C(=O)Nc1ccc2c3ccc(NC(=O)[C@@H]4CCCN4C(=O)[C@H](C(C)C)N4CCOC4=O)cc3n(C)c2c1)N1CCOC1=O` [Example 10, (2S,2′S)—N,N′-(9-methyl-9H-carbazole-2,7-diyl)bis(1-((S)-3-methyl-2-(2-oxazolidine-3-yl)butanoyl)pyrrolidine-2-carboxamide)], for which the EC50 is greater than 100000 pM.

With `COC(=O)N[C@@H](C(=O)N1CCC[C@H]1C(=O)Nc1ccc2c3ccc(NC(=O)[C@@H]4CCCN4C(=O)[C@H](NC(=O)OC)C(C)C)cc3n(C)c2c1)C(C)C` [Example 7, dimethyl ((2R,2′R)-((2S,2′S)-(((9-methyl-9H-carbazole-2,7-diyl)bis(azanediyl))bis(carbonyl))bis(pyrrolidine-2,1-diyl))bis(3-methyl-1-oxobutane-1,2-diyl))dicarbamate], the EC50 was greater than 1000 pM.

As to `COC(=O)N[C@@H](C(=O)N1CCC[C@H]1C(=O)Nc1ccc2c3ccc(NC(=O)[C@@H]4CCCN4C(=O)[C@H](NC(=O)OC)c4ccccc4)cc3n(Cc3ccccn3)c2c1)c1ccccc1` [Example 17, dimethyl ((1R,1′R)-((2S,2′S)-(((9-(pyridine-2-ylmethyl)-9H-carbazole-2,7-diyl)bis(azanediyl))bis(carbonyl))bis(pyrrolidine-2,1-diyl))bis(2-oxo-1-phenylethane-2,1-diyl))dicarbamate], the EC50 is 50 to 250 pM.

Consider `COC(=O)N[C@@H](C(=O)N1CCC[C@H]1C(=O)Nc1ccc2c3ccc(NC(=O)[C@@H]4CCCN4C(=O)[C@H](NC(=O)OC)c4ccccc4)cc3n(Cc3cccnc3)c2c1)c1ccccc1` [Example 18, dimethyl ((1R,1′R)-((2S,2′S)-(((9-(pyridine-3-ylmethyl)-9H-carbazole-2,7-diyl)bis(azanediyl))bis(carbonyl))bis(pyrrolidine-2,1-diyl))bis(2-oxo-1-phenylethane-2,1-diyl))dicarbamate], for which the EC50 was in the range of 50 to 250 pM.

Take `CCCCn1c2cc(NC(=O)C3CCCN3C(=O)[C@H](C(C)C)N3CCOC3=O)ccc2c2ccc(NC(=O)[C@@H]3CCCN3C(=O)[C@H](C(C)C)N3CCOC3=O)cc21` (stereo partly drawn) [Example 5, (2S,2′S)—N,N′-(9-butyl-9H-carbazole-2,7-diyl)bis(1-((S)-3-methyl-3-2-(2-oxooxazolidine-3-yl)butanoyl)pyrrolidine-2-carboxamide)]: the EC50 is greater than 100000 pM.

In the case of `COCCOCCOc1cccc(Cn2c3cc(NC(=O)[C@@H]4CCCN4C(=O)[C@H](NC(=O)OC)c4ccccc4)ccc3c3ccc(NC(=O)[C@@H]4CCCN4C(=O)[C@H](NC(=O)OC)c4ccccc4)cc32)c1` [Example 40, dimethyl ((1R,1′R)-((2S,2′S)-(((9-(3-(2-(2-methoxyethoxy)ethoxy)benzyl)-9H-carbazole-2,7-diyl)bis(azanediyl))bis(carbonyl))bis(pyrrolidine-2,1-diyl))bis(2-oxo-1-phenylethane-2,1-diyl))dicarbamate], the EC50 fell in the range of 10 to 100 pM.

Regarding `COC(=O)N[C@@H](C(=O)N1CCC[C@H]1C(=O)Nc1ccc2c3ccc(NC(=O)[C@@H]4CCCN4C(=O)[C@H](NC(=O)OC)c4ccccc4)cc3n(CCN3CCOCC3)c2c1)c1ccccc1` [Example 12, dimethyl ((1R,1′R)-((2S,2′S)-(((9-(2-morpholinoethyl)-9H-carbazole-2,7-diyl)bis(azanediyl))bis(carbonyl))bis(pyrrolidine-2,1-diyl))bis(2-oxo-1-phenylethane-2,1-diyl))carbamate], the EC50 lay in the range of 1000 to 10000 pM.
